In patent US12459922B2 (Gilead Sciences, Inc., priority 2022, dated 2025):

Biological target: T1, PARP7 (Homo sapiens, UniProt Q7Z3E1)
T1 sequence (Q7Z3E1 1-657): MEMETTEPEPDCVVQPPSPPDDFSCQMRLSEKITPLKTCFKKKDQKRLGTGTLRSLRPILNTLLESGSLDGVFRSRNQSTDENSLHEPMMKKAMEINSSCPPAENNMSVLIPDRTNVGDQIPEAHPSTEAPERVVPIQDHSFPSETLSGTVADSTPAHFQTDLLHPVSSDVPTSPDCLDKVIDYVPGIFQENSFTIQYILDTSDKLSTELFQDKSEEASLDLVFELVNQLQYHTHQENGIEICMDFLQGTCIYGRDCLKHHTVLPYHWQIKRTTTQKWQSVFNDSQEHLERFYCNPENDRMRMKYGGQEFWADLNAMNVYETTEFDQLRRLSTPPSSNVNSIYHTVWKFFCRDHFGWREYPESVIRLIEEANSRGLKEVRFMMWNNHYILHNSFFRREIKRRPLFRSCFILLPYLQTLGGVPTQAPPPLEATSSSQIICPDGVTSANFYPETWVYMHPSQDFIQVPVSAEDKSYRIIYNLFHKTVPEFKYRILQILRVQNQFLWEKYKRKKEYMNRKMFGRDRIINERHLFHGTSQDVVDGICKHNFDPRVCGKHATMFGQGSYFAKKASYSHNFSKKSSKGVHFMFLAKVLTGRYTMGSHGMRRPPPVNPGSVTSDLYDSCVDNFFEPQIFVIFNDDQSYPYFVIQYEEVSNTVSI
Experiment: Probe Displacement Assay for PARP7 (MSD electrochemiluminescent, biotinylated probe RBNO11147)
Conditions: displacement of biotinylated probe RBNO11147 from PARP7 NAD+-binding site; read-out: MSD ProbeDisp PARP7 IC50
Experimental: Displacement of a biotinylated probe (RBNO11147; Wigle et al., Cell Chemical Biology, 2020, pp. 877-887) from the PARP7 NAD+-binding site was measured in vitro using a Mesoscale Discovery electrochemiluminescent assay. […] Next, 10 ml of 10 nM PARP7 protein incubated for 1 hour at room temperature with a dose response curve of each test compound in a Greiner LDV polypropylene plate (#781201) is added to the MSD plate containing the immobilized probe. The interaction is allowed to reach equilibrium for 1.5 hours, and then 10 ml of SULFO-TAG labeled anti-GST antibody (Cat #R32AA-1) is added to each well and allowed to incubate for an additional 1.5 hours at room temperature. Finally, 10 ml of MSD read buffer T (4×, Cat. #R92C-1) is added to each well using a Bravo liquid handler to prevent air bubbles in the wells, and the plates are subsequently read in an MSD instrument. Light intensity is then measured to quantify the amount of PARP7 bound to the immobilized probe on the plate.

IC50 [nM]	SMILES
0.2	C[C@@H](CCCn1ncc2cc(-c3ncc(C(F)(F)F)cn3)ccc2c1=O)Nc1cn[nH]c(=O)c1C(F)(F)F [Example 4, 2-[(4S)-4-[[6-oxo-5-(trifluoromethyl)-1H-pyridazin-4-yl]amino]pentyl]-6 [5-(trifluoromethyl)pyrimidin-2-yl]phthalazin-1-one]
0.3	C[C@@H](CCCn1ccc2cc(-c3ncc(C(F)(F)F)cn3)ccc2c1=O)Nc1cn[nH]c(=O)c1C(F)(F)F [Example 5, 2-[(4S)-4-[[6-oxo-5-(trifluoromethyl)-1H-pyridazin-4-yl]amino]pentyl]-6-[5-(trifluoromethyl)pyrimidin-2-yl]isoquinolin-1-one]
0.7	C[C@@H](CCCn1ccc2c(F)c(-c3ncc(C(F)(F)F)cn3)ccc2c1=O)Nc1cn[nH]c(=O)c1C(F)(F)F [Example 6, 5-fluoro-2-[(4S)-4-[[6-oxo-5-(trifluoromethyl)-1H-pyridazin-4-yl]amino]pentyl]-6-[5-(trifluoromethyl)pyrimidin-2-yl]isoquinolin-1-one]

Tested on: endogenous cellular STAT1 (phosphorylated at Tyr701) in NCI-H1373 cells
Experiment: Phospho-STAT1 (Tyr701) LANCE Ultra TR-FRET Detection Assay
Assay type: cell-based
Conditions: Homo sapiens, NCI-H1373, 48 h, phospho-STAT1 (Tyr701) induction, read-out: NH1373 pSTAT1 EC50

SMILES	EC50 [nM]
C[C@@H](CCCn1ncc2cc(-c3ncc(C(F)(F)F)cn3)ccc2c1=O)Nc1cn[nH]c(=O)c1C(F)(F)F [Example 4, 2-[(4S)-4-[[6-oxo-5-(trifluoromethyl)-1H-pyridazin-4-yl]amino]pentyl]-6 [5-(trifluoromethyl)pyrimidin-2-yl]phthalazin-1-one]	95.6
C[C@@H](CCCn1ccc2cc(-c3ncc(C(F)(F)F)cn3)ccc2c1=O)Nc1cn[nH]c(=O)c1C(F)(F)F [Example 5, 2-[(4S)-4-[[6-oxo-5-(trifluoromethyl)-1H-pyridazin-4-yl]amino]pentyl]-6-[5-(trifluoromethyl)pyrimidin-2-yl]isoquinolin-1-one]	143
C[C@@H](CCCn1ccc2c(F)c(-c3ncc(C(F)(F)F)cn3)ccc2c1=O)Nc1cn[nH]c(=O)c1C(F)(F)F [Example 6, 5-fluoro-2-[(4S)-4-[[6-oxo-5-(trifluoromethyl)-1H-pyridazin-4-yl]amino]pentyl]-6-[5-(trifluoromethyl)pyrimidin-2-yl]isoquinolin-1-one]	434
CN(C)C[C@@H](CCCn1ccc2cc(-c3ncc(C(F)(F)F)cn3)c(F)cc2c1=O)Nc1cn[nH]c(=O)c1C(F)(F)F [Example 473, 2-[(4R)-5-(dimethylamino)-4-[[6-oxo-5-(trifluoromethyl)-1H-pyridazin-4-yl]amino]pentyl]-7-fluoro-6-[5-(trifluoromethyl)pyrimidin-2-yl]isoquinolin-1-one]	969
Cc1nnc([C@@H](CCCn2ccc3cc(-c4ncc(C(F)(F)F)cn4)c(F)c(F)c3c2=O)Nc2cn[nH]c(=O)c2C(F)(F)F)o1 [Example 474, 7,8-difluoro-2-[(4R)-4-(5-methyl-1,3,4-oxadiazol-2-yl)-4-[[6-oxo-5-(trifluoromethyl)-1H-pyridazin-4-yl]amino]butyl]-6-[5-(trifluoromethyl)pyrimidin-2-yl]isoquinolin-1-one]	14.8
O=c1[nH]ncc(N[C@H](CCCn2ccc3cc(-c4ncc(C(F)(F)F)cn4)c(F)c(F)c3c2=O)c2nnc(C3CC3)o2)c1C(F)(F)F [Example 475, 2-[(4R)-4-(5-cyclopropyl-1,3,4-oxadiazol-2-yl)-4-[[6-oxo-5-(trifluoromethyl)-1H-pyridazin-4-yl]amino]butyl]-7,8-difluoro-6-[5-(trifluoromethyl)pyrimidin-2-yl]isoquinolin-1-one]	10.6
O=c1[nH]ncc(N[C@H](CCCn2ccc3cc(-c4ncc(C(F)(F)F)cn4)c(F)cc3c2=O)c2nnc(C3CC3)o2)c1C(F)(F)F [Example 476, 2-[(4R)-4-(5-cyclopropyl-1,3,4-oxadiazol-2-yl)-4-[[6-oxo-5-(trifluoromethyl)-1H-pyridazin-4-yl]amino]butyl]-7-fluoro-6-[5-(trifluoromethyl)pyrimidin-2-yl]isoquinolin-1-one]	20.3
O=c1[nH]ncc(N[C@H](CCCn2ccc3cc(-c4ncc(C(F)(F)F)cn4)c(F)cc3c2=O)c2nnc(C(F)F)o2)c1C(F)(F)F [Example 477, 2-[(4R)-4-[5-(difluoromethyl)-1,3,4-oxadiazol-2-yl]-4-[[6-oxo-5-(trifluoromethyl)-1H-pyridazin-4-yl]amino]butyl]-7-fluoro-6-[5-(trifluoromethyl)pyrimidin-2-yl]isoquinolin-1-one]	18.4
C[C@@H](CC(O)Cn1ccc2cc(-c3ncc(C(F)(F)F)cn3)c(F)cc2c1=O)Nc1cn[nH]c(=O)c1C(F)(F)F (stereo partly drawn) [Example 478, 7-fluoro-2-[(4S)-2-hydroxy-4-[[6-oxo-5-(trifluoromethyl)-1H-pyridazin-4-yl]amino]pentyl]-6-[5-(trifluoromethyl)pyrimidin-2-yl]isoquinolin-1-one]	5.25
O=c1[nH]ncc(N[C@H]2CCC[C@@H](Cn3cc(F)c4cc(-c5ncc(C(F)(F)F)cn5)c(F)cc4c3=O)C2)c1C(F)(F)F [Example 481, 4,7-difluoro-2-(((1R,3S)-3-((6-oxo-5-(trifluoromethyl)-1,6-dihydropyridazin-4-yl)amino)cyclohexyl)methyl)-6-(5-(trifluoromethyl)pyrimidin-2-yl)isoquinolin-1(2H)-one]	3.24
O=c1[nH]ncc(N[C@H]2CCC[C@@H](Cn3cc(F)c4cc(-c5ncc(C(F)F)cn5)c(F)cc4c3=O)C2)c1C(F)(F)F [Example 482, 6-(5-(difluoromethyl)pyrimidin-2-yl)-4,7-difluoro-2-(((1R,3S)-3-((6-oxo-5-(trifluoromethyl)-1,6-dihydropyridazin-4-yl)amino)cyclohexyl)methyl)isoquinolin-1(2H)-one]	1.94
N#Cc1cn(C[C@@H]2CCC[C@H](Nc3cn[nH]c(=O)c3C(F)(F)F)C2)c(=O)c2cc(F)c(-c3ncc(C(F)(F)F)cn3)cc12 [Example 483, 7-fluoro-1-oxo-2-(((1R,3S)-3-((6-oxo-5-(trifluoromethyl)-1,6-dihydropyridazin-4-yl)amino)cyclohexyl)methyl)-6-(5-(trifluoromethyl)pyrimidin-2-yl)-1,2-dihydroisoquinoline-4-carbonitrile]	4.71
Cc1cn(C[C@@H]2CCC[C@H](Nc3cn[nH]c(=O)c3C(F)(F)F)C2)c(=O)c2cc(F)c(-c3ncc(C(F)(F)F)cn3)cc12 [Example 485, 7-fluoro-4-methyl-2-(((1R,3S)-3-((6-oxo-5-(trifluoromethyl)-1,6-dihydropyridazin-4-yl)amino)cyclohexyl)methyl)-6-(5-(trifluoromethyl)pyrimidin-2-yl)isoquinolin-1(2H)-one]	5.46

Continued, values first:

EC50 [nM]	SMILES
95.8	Nc1cn(C[C@@H]2CCC[C@H](Nc3cn[nH]c(=O)c3C(F)(F)F)C2)c(=O)c2cc(F)c(-c3ncc(C(F)(F)F)cn3)cc12 [Example 486, 4-amino-7-fluoro-2-(((1R,3S)-3-((6-oxo-5-(trifluoromethyl)-1,6-dihydropyridazin-4-yl)amino)cyclohexyl)methyl)-6-(5-(trifluoromethyl)pyrimidin-2-yl)isoquinolin-1(2H)-one]
0.51	O=c1[nH]ncc(N[C@H]2CCC[C@@H](Cn3cnc4cc(-c5nc6ccccn6n5)c(F)cc4c3=O)C2)c1C(F)(F)F [Example 487]
0.51	O=c1[nH]ncc(N[C@H]2CCC[C@@H](Cn3ccc4cc(-c5nc6ccccn6n5)c(F)cc4c3=O)C2)c1C(F)(F)F [Example 488, 6-([1,2,4]triazolo[1,5-a]pyridin-2-yl)-7-fluoro-2-(((1R,3S)-3-((6-oxo-5-(trifluoromethyl)-1,6-dihydropyridazin-4-yl)amino)cyclohexyl)methyl)isoquinolin-1(2H)-one]
0.51	O=c1[nH]ncc(N[C@H](CCCn2ccc3cc(-c4nc5ccccn5n4)c(F)cc3c2=O)COC(F)F)c1C(F)(F)F [Example 489, (R)-6-([1,2,4]triazolo[1,5-a]pyridin-2-yl)-2-(5-(difluoromethoxy)-4-((6-oxo-5-(trifluoromethyl)-1,6-dihydropyridazin-4-yl)amino)pentyl)-7-fluoroisoquinolin-1(2H)-one]
1	O=c1[nH]ncc(N[C@H](CCCn2cnc3cc(-c4nc5ccccn5n4)c(F)cc3c2=O)COC(F)F)c1C(F)(F)F [Example 490, (R)-7-([1,2,4]triazolo[1,5-a]pyridin-2-yl)-3-(5-(difluoromethoxy)-4-((6-oxo-5-(trifluoromethyl)-1,6-dihydropyridazin-4-yl)amino)pentyl)-6-fluoroquinazolin-4(3H)-one]
50.5	Cn1nc(-c2cc3ccn(C[C@@H]4CCC[C@H](Nc5cn[nH]c(=O)c5C(F)(F)F)C4)c(=O)c3cc2F)cc1C(F)(F)F [Example 491, 7-fluoro-6-[1-methyl-5-(trifluoromethyl)pyrazol-3-yl]-2-[[(1R,3S)-3-[[6-oxo-5-(trifluoromethyl)-1H-pyridazin-4-yl]amino]cyclohexyl]methyl]isoquinolin-1-one]
7	COc1cnc(-c2cc3ccn(C[C@@H]4CCC[C@H](Nc5cn[nH]c(=O)c5C(F)(F)F)C4)c(=O)c3cc2F)nc1 [Example 492, 7-fluoro-6-(5-methoxypyrimidin-2-yl)-2-[[(1R,3S)-3-[[6-oxo-5-(trifluoromethyl)-1H-pyridazin-4-yl]amino]cyclohexyl]methyl]isoquinolin-1-one]
29	O=c1[nH]ncc(N[C@H]2CCC[C@@H](Cn3ccc4cc(-c5ncc(OCCO)cn5)c(F)cc4c3=O)C2)c1C(F)(F)F [Example 495, 7-fluoro-6-[5-(2-hydroxyethoxy)pyrimidin-2-yl]-2-[[(1R,3S)-3-[[6-oxo-5-(trifluoromethyl)-1H-pyridazin-4-yl]amino]cyclohexyl]methyl]isoquinolin-1-one]
5.5	O=c1[nH]ncc(N[C@H]2CCC[C@@H](Cn3ccc4cc(-c5cc6c(cn5)C(F)(F)CC6)c(F)cc4c3=O)C2)c1C(F)(F)F [Example 496, 6-(7,7-difluoro-5,6-dihydrocyclopenta[c]pyridin-3-yl)-7-fluoro-2-[[(1R,3S)-3-[[6-oxo-5-(trifluoromethyl)-1H-pyridazin-4-yl]amino]cyclohexyl]methyl]isoquinolin-1-one]
